Measurements published in ChEMBL document CHEMBL1201862, “PubChem BioAssay data set” (2004).
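Grown in 96-well plates, cells were treated for 48 hours with each compound at five concentrations. Insufficient inhibition: endpoint recorded as highest concentration tested. The concentration for 50% growth inhibition is given as GI50.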 The source made the active and inactive calls. Rule as the data show it: active = GI50 up to about 1.1 µM and inactive = higher.

Columns and labels:
Experiment in all cases: NCI tumour cell line growth inhibition, 48 h
SF-268 = test system: SF-268
SNB-75 = test system: SNB-75
SF-295 = test system: SF-295
HL-60 = test system: HL-60
NCI-H522 = test system: NCI-H522
HCT-15 = test system: HCT-15
OVCAR-4 = test system: OVCAR-4
OVCAR-3 = test system: OVCAR-3
LOX IMVI = test system: LOX IMVI
MOLT-4 = test system: MOLT-4
M14 = test system: M14
HOP-62 = test system: HOP-62
CCRF-CEM = test system: CCRF-CEM
SK-OV-3 = test system: SK-OV-3
UO-31 = test system: UO-31
IGROV-1 = test system: IGROV-1
ACHN = test system: ACHN
SK-MEL-5 = test system: SK-MEL-5
HCC 2998 = test system: HCC 2998
HCT-116 = test system: HCT-116

| Structure (SMILES) | GI50 (SF-268) | GI50 (SNB-75) | GI50 (SF-295) | GI50 (HL-60) | GI50 (NCI-H522) | GI50 (HCT-15) | GI50 (OVCAR-4) | GI50 (OVCAR-3) | GI50 (LOX IMVI) | GI50 (MOLT-4) | GI50 (M14) | GI50 (HOP-62) | GI50 (CCRF-CEM) | GI50 (SK-OV-3) | GI50 (UO-31) | GI50 (IGROV-1) | GI50 (ACHN) | GI50 (SK-MEL-5) | GI50 (HCC 2998) | GI50 (HCT-116) |
| --- | --- | --- | --- | --- | --- | --- | --- | --- | --- | --- | --- | --- | --- | --- | --- | --- | --- | --- | --- | --- |
| C/C=C/CC(C)[C@@H](O)[C@H](NC)C(=O)O (stereo partly drawn) | > 100 µM (inactive) | > 100 µM (inactive) | > 100 µM (inactive) | > 100 µM (inactive) | > 100 µM (inactive) | > 100 µM | > 100 µM (inactive) | > 100 µM (inactive) | > 100 µM (inactive) | > 100 µM (inactive) | > 100 µM (inactive) | > 100 µM (inactive) | > 100 µM (inactive) | > 100 µM (inactive) | > 100 µM (inactive) | > 100 µM (inactive) | > 100 µM (inactive) | > 100 µM (inactive) | > 100 µM (inactive) | – |
| Cc1ccc(NC(=O)CC2Sc3ccccc3NC2=O)cc1C (stereo not drawn) | 60 µM (inactive) | 39.8 µM (inactive) | > 100 µM (inactive) | 24.5 µM (inactive) | > 100 µM (inactive) | 85.7 µM | 56.2 µM (inactive) | 70.8 µM (inactive) | 38.6 µM (inactive) | 8.22 µM (inactive) | > 100 µM (inactive) | > 100 µM (inactive) | 18.7 µM (inactive) | > 100 µM (inactive) | 73.6 µM (inactive) | > 100 µM (inactive) | 54.8 µM (inactive) | 41.4 µM (inactive) | > 100 µM (inactive) | 41.6 µM (inactive) |
| COc1ccc2c(c1)/C(=C(\C(Cl)=C(\Cl)N1CCCCC1)[N+](=O)[O-])N2 | > 100 µM (inactive) | > 100 µM (inactive) | 80.5 µM (inactive) | > 100 µM (inactive) | 39.4 µM (inactive) | > 100 µM | 87.5 µM (inactive) | 42.5 µM (inactive) | > 100 µM (inactive) | 27.2 µM (inactive) | > 100 µM (inactive) | > 100 µM (inactive) | 40.7 µM (inactive) | > 100 µM (inactive) | > 100 µM (inactive) | 90.6 µM (inactive) | > 100 µM (inactive) | 45.9 µM (inactive) | > 100 µM (inactive) | > 100 µM (inactive) |
| CN(C(=O)C1=CCC2(CC1)OCCO2)c1ccccc1I | – | > 100 µM (inactive) | > 100 µM (inactive) | 96.6 µM (inactive) | > 100 µM (inactive) | > 100 µM | > 100 µM (inactive) | > 100 µM (inactive) | > 100 µM (inactive) | > 100 µM (inactive) | > 100 µM (inactive) | > 100 µM (inactive) | > 100 µM (inactive) | > 100 µM (inactive) | > 100 µM (inactive) | > 100 µM (inactive) | > 100 µM (inactive) | > 100 µM (inactive) | > 100 µM (inactive) | > 100 µM (inactive) |
| CC(=O)Nc1ccc2c3c(cc(O)c2c1)N(C(=O)CCCCCC(=O)Nc1ccc2c4c(cc(O)c2c1)N(C(=O)OC(C)(C)C)CC4CCl)CC3CCl (stereo not drawn) | 0.646 µM (active) | 1.49 µM (inactive) | 5.73 µM (inactive) | 0.355 µM (active) | 1.05 µM (active) | > 100 µM | 5.36 µM (inactive) | 1.57 µM (inactive) | 1.92 µM (inactive) | 0.0585 µM (active) | 4.09 µM (inactive) | 1.81 µM (inactive) | 0.0995 µM (active) | 3.54 µM (inactive) | > 100 µM (inactive) | 8.05 µM (inactive) | 3.54 µM (inactive) | 1.33 µM (inactive) | 1.42 µM (inactive) | 1.67 µM (inactive) |
| OC(c1ccccc1)C1CC2C=CC1C2 (stereo not drawn) | > 100 µM (inactive) | > 100 µM (inactive) | > 100 µM (inactive) | > 100 µM (inactive) | > 100 µM (inactive) | > 100 µM | > 100 µM (inactive) | > 100 µM (inactive) | > 100 µM (inactive) | > 100 µM (inactive) | > 100 µM (inactive) | > 100 µM (inactive) | > 100 µM (inactive) | > 100 µM (inactive) | > 100 µM (inactive) | > 100 µM (inactive) | > 100 µM (inactive) | > 100 µM (inactive) | – | > 100 µM (inactive) |
| COC(=O)CCC(=O)Nc1ccc(Cl)cc1C | – | > 74.5 µM (inactive) | > 100 µM (inactive) | 0.399 µM (active) | 3.41 µM (inactive) | > 100 µM | > 75.7 µM (inactive) | 43.9 µM (inactive) | > 25.8 µM (inactive) | 1.8 µM (inactive) | > 100 µM (inactive) | 39.4 µM (inactive) | 0.123 µM (active) | > 100 µM (inactive) | – | > 64 µM (inactive) | > 37.2 µM (inactive) | > 92.9 µM (inactive) | > 100 µM (inactive) | > 100 µM (inactive) |
| Cc1ccc(S(=O)(=O)NCCCSCCO)cc1 | 10 µM (inactive) | 33.1 µM (inactive) | > 100 µM (inactive) | 26.1 µM (inactive) | > 100 µM (inactive) | > 100 µM | 96.8 µM (inactive) | 31.6 µM (inactive) | 29 µM (inactive) | 56.5 µM (inactive) | 28.6 µM (inactive) | – | 33.3 µM (inactive) | > 100 µM (inactive) | > 100 µM (inactive) | – | > 100 µM (inactive) | 13.9 µM (inactive) | > 100 µM (inactive) | 27.2 µM (inactive) |
| CCN(CC)CCC(=O)c1ccccc1 | 17.8 µM (inactive) | 12.5 µM (inactive) | – | 12.6 µM (inactive) | – | 20.1 µM | 20.5 µM (inactive) | 18.6 µM (inactive) | 19.4 µM (inactive) | 19.2 µM (inactive) | 16.8 µM (inactive) | > 100 µM (inactive) | 6.21 µM (inactive) | – | 31.3 µM (inactive) | > 100 µM (inactive) | 16.2 µM (inactive) | 91 µM (inactive) | 56 µM (inactive) | 17.3 µM (inactive) |
| CN(C)C(=S)/N=c1\ssc(=S)n1Cc1ccco1 | 7.46 µM (inactive) | 0.771 µM (active) | 2.1 µM (inactive) | 0.379 µM (active) | 0.249 µM (active) | 2.2 µM | 13.6 µM (inactive) | 1.15 µM (inactive) | 2.4 µM (inactive) | 2.09 µM (inactive) | 2.15 µM (inactive) | 2.56 µM (inactive) | 0.975 µM (active) | 1.71 µM (inactive) | 5.57 µM (inactive) | 11.1 µM (inactive) | 32.3 µM (inactive) | 1.22 µM (inactive) | 4.61 µM (inactive) | 1.53 µM (inactive) |
| CC1CC/C(=C\c2ccc(F)cc2)C(=O)/C1=C/c1ccc(F)cc1 (stereo not drawn) | 3.6 µM (inactive) | 2.04 µM (inactive) | 2.84 µM (inactive) | 3.08 µM (inactive) | – | 2.34 µM | – | 5.7 µM (inactive) | 2.77 µM (inactive) | 3.02 µM (inactive) | 6.76 µM (inactive) | – | 3.62 µM (inactive) | 17.4 µM (inactive) | 11.1 µM (inactive) | 3.04 µM (inactive) | 4.15 µM (inactive) | 4.57 µM (inactive) | – | 2.5 µM (inactive) |
| Cc1c(C)c(S(=O)(=O)N(CCCN)OCCCN)c(C)c2c1OC(C)(C)CC2 | 13.3 µM (inactive) | 11.3 µM (inactive) | 16.3 µM (inactive) | – | 14 µM (inactive) | 15.8 µM | 8.17 µM (inactive) | 15 µM (inactive) | 13.3 µM (inactive) | 4.61 µM (inactive) | 14.3 µM (inactive) | 13.3 µM (inactive) | 10.2 µM (inactive) | 15.4 µM (inactive) | 17.5 µM (inactive) | 7.78 µM (inactive) | 16.1 µM (inactive) | 15.6 µM (inactive) | 4.14 µM (inactive) | 16.5 µM (inactive) |
| COc1ccccc1-c1cc(O)c2ccc(C)nc2n1 | > 100 µM (inactive) | – | – | – | 56.6 µM (inactive) | 43.4 µM | > 100 µM (inactive) | – | > 100 µM (inactive) | > 100 µM (inactive) | 98.2 µM (inactive) | > 100 µM (inactive) | > 100 µM (inactive) | > 100 µM (inactive) | > 100 µM (inactive) | 40.6 µM (inactive) | > 100 µM (inactive) | – | > 100 µM (inactive) | – |
| COc1cc(O)c2c(=O)c(O)c(-c3ccc(O)c(O)c3)oc2c1 [RHAMNETIN] | 7.26 µM (inactive) | – | 21.2 µM (inactive) | 2.78 µM (inactive) | 3.15 µM (inactive) | 8.04 µM | 0.403 µM (active) | 3.9 µM (inactive) | 11.7 µM (inactive) | 6.95 µM (inactive) | 5.15 µM (inactive) | 14.6 µM (inactive) | 3.61 µM (inactive) | 20 µM (inactive) | 6.05 µM (inactive) | 40.3 µM (inactive) | 5.47 µM (inactive) | 10.5 µM (inactive) | 14 µM (inactive) | 14.6 µM (inactive) |
